Test results published in ChEMBL document CHEMBL1201862, “PubChem BioAssay data set” (2004).
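How tested: cells in 96-well plates exposed to compound for 48 hours at five concentrations. GI50 marks 50% less growth.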 Active and inactive are the calls of the source. No stated cut-off is given here; in the data, active = GI50 up to about 1.1 µM and inactive = higher.

Experiments:
Experiment in all cases: inhibition of tumour cell growth, NCI panel, 48 h
[1] = system: 786-0
[2] = system: A498
[3] = system: A549
[4] = system: ACHN
[5] = system: BT-549
[6] = system: CAKI-1
[7] = system: CCRF-CEM
[8] = system: COLO 205
[9] = system: DU-145
[10] = system: EKVX
[11] = system: HCC 2998
[12] = system: HCT-116
[13] = system: HCT-15
[14] = system: HL-60
[15] = system: HOP-62
[16] = system: HOP-92
[17] = system: HT-29
[18] = system: Hs-578T
[19] = system: IGROV-1
[20] = system: K562
[21] = system: KM12
[22] = system: LOX IMVI
[23] = system: M14
[24] = system: MCF7
[25] = system: MDA-MB-231
[26] = system: MDA-MB-435
[27] = system: MDA-N
[28] = system: MOLT-4
[29] = system: Malme-3M
[30] = system: NCI-H23
[31] = system: NCI-H460
[32] = system: NCI-H522
[33] = system: NCI/ADR-RES
[34] = system: OVCAR-3
[35] = system: OVCAR-5
[36] = system: OVCAR-8
[37] = system: PC-3
[38] = system: RPMI-8226
[39] = system: RXF 393
[40] = system: SF-268
[41] = system: SF-295
[42] = system: SF-539
[43] = system: SK-MEL-28
[44] = system: SK-MEL-5
[45] = system: SK-OV-3
[46] = system: SN12C
[47] = system: SNB-19
[48] = system: SNB-75
[49] = system: SR
[50] = system: SW-620
[51] = system: T47D
[52] = system: TK-10
[53] = system: UACC-257
[54] = system: UACC-62
[55] = system: UO-31
[56] = system: NCI-H226
[57] = system: OVCAR-4
[58] = system: SK-MEL-2
[59] = system: U-251

Structure (SMILES): CCOC(=O)c1nc2cc(C(F)(F)F)ccc2nc1Nc1ccc(OC)c(OC)c1
- GI50 [1]: > 100 µM (inactive)
- GI50 [2]: > 100 µM (inactive)
- GI50 [3]: > 100 µM (inactive)
- GI50 [4]: > 100 µM (inactive)
- GI50 [5]: > 100 µM (inactive)
- GI50 [6]: > 100 µM (inactive)
- GI50 [7]: > 100 µM (inactive)
- GI50 [8]: > 100 µM (inactive)
- GI50 [9]: > 100 µM (inactive)
- GI50 [10]: > 100 µM (inactive)
- GI50 [11]: > 100 µM (inactive)
- GI50 [12]: > 100 µM (inactive)
- GI50 [13]: > 100 µM
- GI50 [14]: > 100 µM (inactive)
- GI50 [15]: 32 µM (inactive)
- GI50 [16]: > 100 µM (inactive)
- GI50 [17]: > 100 µM (inactive)
- GI50 [18]: 41.7 µM (inactive)
- GI50 [19]: > 100 µM (inactive)
- GI50 [20]: > 100 µM (inactive)
- GI50 [21]: > 100 µM (inactive)
- GI50 [22]: > 100 µM (inactive)
- GI50 [23]: > 100 µM (inactive)
- GI50 [24]: > 100 µM (inactive)
- GI50 [25]: > 100 µM (inactive)
- GI50 [26]: > 100 µM (inactive)
- GI50 [27]: > 100 µM (inactive)
- GI50 [28]: > 100 µM (inactive)
- GI50 [29]: > 100 µM (inactive)
- GI50 [30]: > 100 µM (inactive)
- GI50 [31]: > 100 µM (inactive)
- GI50 [32]: > 100 µM (inactive)
- GI50 [33]: > 100 µM (inactive)
- GI50 [34]: > 100 µM (inactive)
- GI50 [35]: > 100 µM (inactive)
- GI50 [36]: > 100 µM (inactive)
- GI50 [37]: > 100 µM (inactive)
- GI50 [38]: > 100 µM (inactive)
- GI50 [39]: > 100 µM (inactive)
- GI50 [40]: > 100 µM (inactive)
- GI50 [41]: > 100 µM (inactive)
- GI50 [42]: > 100 µM (inactive)
- GI50 [43]: > 100 µM (inactive)
- GI50 [44]: > 100 µM (inactive)
- GI50 [45]: > 100 µM (inactive)
- GI50 [46]: > 100 µM (inactive)
- GI50 [47]: > 100 µM (inactive)
- GI50 [48]: 50.9 µM (inactive)
- GI50 [49]: > 100 µM (inactive)
- GI50 [50]: > 100 µM (inactive)
- GI50 [51]: 71.3 µM (inactive)
- GI50 [52]: > 100 µM (inactive)
- GI50 [53]: > 100 µM (inactive)
- GI50 [54]: > 100 µM (inactive)
- GI50 [55]: > 100 µM (inactive)

Structure (SMILES): Cc1ccc(S(=O)(=O)N/N=C2/CCCOC2)cc1
- GI50 [1]: > 100 µM (inactive)
- GI50 [2]: > 100 µM (inactive)
- GI50 [3]: > 100 µM (inactive)
- GI50 [4]: > 100 µM (inactive)
- GI50 [5]: > 100 µM (inactive)
- GI50 [6]: > 100 µM (inactive)
- GI50 [7]: > 100 µM (inactive)
- GI50 [8]: > 100 µM (inactive)
- GI50 [9]: > 100 µM (inactive)
- GI50 [10]: > 100 µM (inactive)
- GI50 [11]: > 100 µM (inactive)
- GI50 [12]: > 100 µM (inactive)
- GI50 [13]: > 100 µM
- GI50 [14]: > 100 µM (inactive)
- GI50 [15]: > 100 µM (inactive)
- GI50 [16]: > 100 µM (inactive)
- GI50 [17]: > 100 µM (inactive)
- GI50 [18]: > 100 µM (inactive)
- GI50 [19]: > 100 µM (inactive)
- GI50 [20]: > 100 µM (inactive)
- GI50 [21]: > 100 µM (inactive)
- GI50 [22]: > 100 µM (inactive)
- GI50 [23]: > 100 µM (inactive)
- GI50 [24]: > 100 µM (inactive)
- GI50 [25]: > 100 µM (inactive)
- GI50 [26]: > 100 µM (inactive)
- GI50 [27]: > 100 µM (inactive)
- GI50 [28]: > 100 µM (inactive)
- GI50 [29]: > 100 µM (inactive)
- GI50 [56]: > 100 µM (inactive)
- GI50 [30]: > 100 µM (inactive)
- GI50 [31]: > 100 µM (inactive)
- GI50 [32]: > 100 µM (inactive)
- GI50 [33]: > 100 µM (inactive)
- GI50 [34]: > 100 µM (inactive)
- GI50 [57]: > 100 µM (inactive)
- GI50 [35]: > 100 µM (inactive)
- GI50 [36]: > 100 µM (inactive)
- GI50 [37]: > 100 µM (inactive)
- GI50 [38]: > 100 µM (inactive)
- GI50 [39]: > 100 µM (inactive)
- GI50 [40]: > 100 µM (inactive)
- GI50 [41]: > 100 µM (inactive)
- GI50 [42]: > 100 µM (inactive)
- GI50 [43]: > 100 µM (inactive)
- GI50 [58]: > 100 µM (inactive)
- GI50 [44]: > 100 µM (inactive)
- GI50 [45]: > 100 µM (inactive)
- GI50 [46]: > 100 µM (inactive)
- GI50 [47]: > 100 µM (inactive)
- GI50 [49]: > 100 µM (inactive)
- GI50 [50]: > 100 µM (inactive)
- GI50 [51]: > 100 µM (inactive)
- GI50 [52]: > 100 µM (inactive)
- GI50 [59]: > 100 µM (inactive)
- GI50 [53]: > 100 µM (inactive)
- GI50 [54]: > 100 µM (inactive)
- GI50 [55]: > 100 µM (inactive)
